Structures can show the parent of a compound that is named as a salt.
Target: human GlyT1c transporter (Homo sapiens (Human), UniProt P48067)
Assay: Radioligand binding assay using recombinant CHO cell membranes expressing human GlyT1
Settings: examples 88-204, radioligand not specified by footnote, read-out: radioligand binding Kiapp
Protocol: 2. Radioligand binding assays using recombinant CHO cell membranes expressing human GlyT1:
Radioligand binding to human GlyT1c transporter-expressing membranes was carried out as described in Mezler et al., Molecular Pharmacology 74:1705-1715, 2008.
More specifically, [^3H]-(R)-NPTS radioligand binding to human GlyT1c transporter-expressing membranes was measured in duplicate in a total volume of 200 μl in 96-well plates. To 100 μl of membrane suspension (yielding a final membrane protein concentration of 50 μg/ml) in assay buffer (120 mM NaCl, 2 mM KCl, 10 mM Hepes, 1 mM MgCl2, 1 mM CaCl2, pH 7.5) […] of [^3H]-(R)-NPTS (0.5 nM final) were added in assay buffer. For competition experiments 10 μl of buffer or unlabeled compound solution obtained from dilution series of test compounds in DMSO followed. An intermediate 1:10 dilution in assay buffer yielded a final DMSO concentration of 1%. Non-specific binding was determined in the presence of 10 μM Org24598 (or its racemate Org24461) for [^3H]-(R)-NPTS. After incubation at room temperature for 1 h, the incubation mixture was harvested (Tomtec Mach III U Harvester) through 96-well GF/B filter plates (PerkinElmer), presoaked for 1 h with 40 μl per well of 0.1% polyethylene-imine (PEI). After washing twice with ice-cold 50 mM Tris-HCl pH 7.4 buffer, drying and addition of 35 μl scintillator (BetaplateScint, PerkinElmer) per well followed. The radioactivity was determined by liquid scintillation spectrometry in a MicroBeta (PerkinElmer) plate counter.
Data analysis: For binding of [^3H]-(R)-NPTS to cell membranes, the calculation of Kd and Bmax values from the saturation binding assays and the IC50 values from the displacement binding was performed by iterative non-linear regression analysis adapted from the ‘Ligand’ program (Munson and Rodbard, 1980). Radioligand displacement curves in absence or in presence of increasing concentrations of tested compounds were fitted using a one-site fit and the apparent Ki values were calculated from the IC50 values using the Cheng-Prusoff equation (Cheng and Prusoff 1973).

Sequence of human GlyT1c transporter (P48067 whole entry): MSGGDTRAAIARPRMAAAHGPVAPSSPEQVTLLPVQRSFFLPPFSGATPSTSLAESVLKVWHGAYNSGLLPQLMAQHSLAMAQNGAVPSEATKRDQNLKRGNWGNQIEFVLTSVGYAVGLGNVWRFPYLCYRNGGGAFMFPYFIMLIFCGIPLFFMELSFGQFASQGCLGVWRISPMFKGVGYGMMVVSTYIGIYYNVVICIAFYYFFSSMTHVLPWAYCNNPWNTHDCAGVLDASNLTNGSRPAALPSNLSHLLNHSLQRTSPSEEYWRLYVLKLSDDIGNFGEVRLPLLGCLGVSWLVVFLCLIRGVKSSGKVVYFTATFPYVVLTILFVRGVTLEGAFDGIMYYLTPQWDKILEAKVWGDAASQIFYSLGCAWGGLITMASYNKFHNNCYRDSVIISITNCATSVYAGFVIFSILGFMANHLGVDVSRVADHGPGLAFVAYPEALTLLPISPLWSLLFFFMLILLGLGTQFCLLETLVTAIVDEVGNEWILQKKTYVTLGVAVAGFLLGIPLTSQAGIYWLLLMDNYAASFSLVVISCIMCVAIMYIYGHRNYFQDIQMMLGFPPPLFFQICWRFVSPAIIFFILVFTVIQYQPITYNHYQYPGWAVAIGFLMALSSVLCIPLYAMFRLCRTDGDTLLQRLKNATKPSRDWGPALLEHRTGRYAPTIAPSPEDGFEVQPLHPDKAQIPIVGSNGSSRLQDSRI

`Nc1ncc(S(=O)(=O)NCCOc2ccc3c(c2)C(C2(c4ccc(Cl)cc4)CCC2)NCC3)cn1` (stereo not shown) [Example 150, 2-Amino-N-[2-({1-[1-(4-chlorophenyl)cyclobutyl]-1,2,3,4-tetrahydroisoquinolin-7-yl}oxy)ethyl]pyrimidine-5-sulfonamide] and `Nc1ncc(S(=O)(=O)NCCOc2ccc3c(c2)C(C2(c4ccc(Cl)cc4)CCC2)NCC3)s1` (stereo not shown) [Example 163, 2-Amino-N-[2-({1-[1-(4-chlorophenyl)cyclobutyl]-1,2,3,4-tetrahydroisoquinolin-7-yl}oxy)ethyl]-1,3-thiazole-5-sulfonamide dihydrochloride] cannot be ordered by Ki: no more than 0.1 µM for the first, no more than 1 µM for the second.

`O=S(=O)(NCCOc1ccc2c(c1)C(C1(c3ccc(Cl)cc3)CCC1)NCC2)c1cn[nH]c1` (stereo not shown) [Example 153, N-[2-({1-[1-(4-Chlorophenyl)cyclobutyl]-1,2,3,4-tetrahydroisoquinolin-7-yl}oxy)ethyl]-1H-pyrazole-4-sulfonamide hydrochloride] and `O=S(=O)(NCCOc1ccc2c(c1)C(C1(c3ccc(Cl)cc3)CCC1)NCC2)c1ncn[nH]1` (stereo not shown) [Example 199, N-[2-({1-[1-(4-Chlorophenyl)cyclobutyl]-1,2,3,4-tetrahydroisoquinolin-7-yl}oxy)ethyl]-1H-1,2,4-triazole-5-sulfonamide] cannot be ordered by Ki: no more than 0.1 µM for the first, no more than 10 µM for the second.

`COc1ccc(S(=O)(=O)NCCOc2ccc3c(c2)C(C2(c4ccc(Cl)cc4)CCC2)NCC3)cn1` (stereo not shown) [Example 156, N-[2-({1-[1-(4-Chlorophenyl)cyclobutyl]-1,2,3,4-tetrahydroisoquinolin-7-yl}oxy)ethyl]-6-methoxypyridine-3-sulfonamide hydrochloride] and `O=S(=O)(NCCOc1ccc2c(c1)C(C1(c3ccc(Cl)cc3)CCC1)NCC2)c1ccc(Oc2ccccc2)nc1` (stereo not shown) [Example 173, N-[2-({1-[1-(4-Chlorophenyl)cyclobutyl]-1,2,3,4-tetrahydroisoquinolin-7-yl}oxy)ethyl]-6-phenoxypyridine-3-sulfonamide hydrochloride] cannot be ordered by Ki: no more than 0.1 µM for the first, no more than 10 µM for the second.

`Nc1cccc(S(=O)(=O)NCCOc2ccc3c(c2)C(C2(c4ccc(Cl)cc4)CCC2)NCC3)c1` (stereo not shown) [Example 157, 3-Amino-N-[2-({1-[1-(4-chlorophenyl)cyclobutyl]-1,2,3,4-tetrahydroisoquinolin-7-yl}oxy)ethyl]benzenesulfonamide dihydrochloride] and `NC(=O)Nc1ccc(S(=O)(=O)NCCOc2ccc3c(c2)C(C2(c4ccc(Cl)cc4)CCC2)NCC3)cc1` (stereo not shown) [Example 191, 4-(Carbamoylamino)-N-[2-({1-[1-(4-chlorophenyl)cyclobutyl]-1,2,3,4-tetrahydroisoquinolin-7-yl}oxy)ethyl]benzenesulfonamide hydrochloride] cannot be ordered by Ki: no more than 0.1 µM for the first, no more than 10 µM for the second.

`O=S(=O)(NCCOc1ccc2c(c1)C(C1(c3ccc(Cl)cc3)CCC1)NCC2)C1CCNC1` (stereo not shown) [Example 159, N-[2-({1-[1-(4-Chlorophenyl)cyclobutyl]-1,2,3,4-tetrahydroisoquinolin-7-yl}oxy)ethyl]pyrrolidine-3-sulfonamide dihydrochloride] and `O=S(=O)(NCCOc1ccc2c(c1)C(C1(c3ccc(Cl)cc3)CCC1)NCC2)C1CNC1` (stereo not shown) [Example 166, N-[2-({1-[1-(4-Chlorophenyl)cyclobutyl]-1,2,3,4-tetrahydroisoquinolin-7-yl}oxy)ethyl]azetidine-3-sulfonamide (2E)-but-2-enedioate] cannot be ordered by Ki: no more than 0.1 µM for the first, no more than 1 µM for the second.

`O=S(=O)(CCN1CCCCC1)NCCOc1ccc2c(c1)C(C1(c3ccc(Cl)cc3)CCC1)NCC2` (stereo not shown) [Example 161, N-[2-({1-[1-(4-Chlorophenyl)cyclobutyl]-1,2,3,4-tetrahydroisoquinolin-7-yl}oxy)ethyl]-2-(piperidin-1-yl)ethanesulfonamide (2E)-but-2-enedioate] and `CC(C)NCCS(=O)(=O)NCCOc1ccc2c(c1)C(C1(c3ccc(Cl)cc3)CCC1)NCC2` (stereo not shown) [Example 169, N-[2-({1-[1-(4-Chlorophenyl)cyclobutyl]-1,2,3,4-tetrahydroisoquinolin-7-yl}oxy)ethyl]-2-(propan-2-ylamino)ethanesulfonamide] cannot be ordered by Ki: no more than 1 µM for the first, no more than 1 µM for the second.

`CNc1nnc(S(=O)(=O)NCCOc2ccc3c(c2)C(C2(c4ccc(Cl)cc4)CCC2)NCC3)s1` (stereo not shown) [Example 162, N-[2-({1-[1-(4-Chlorophenyl)cyclobutyl]-1,2,3,4-tetrahydroisoquinolin-7-yl}oxy)ethyl]-5-(methylamino)-1,3,4-thiadiazole-2-sulfonamide hydrochloride] and `CC(=O)Nc1ncc(S(=O)(=O)NCCOc2ccc3c(c2)C(C2(c4ccc(Cl)cc4)CCC2)NCC3)s1` (stereo not shown) [Example 188, N-(5-{[2-({1-[1-(4-Chlorophenyl)cyclobutyl]-1,2,3,4-tetrahydroisoquinolin-7-yl}oxy)ethyl]sulfamoyl}-1,3-thiazol-2-yl)acetamide hydrochloride] cannot be ordered by Ki: no more than 1 µM for the first, no more than 10 µM for the second.

`O=C(OCc1ccccc1)N1CCC(S(=O)(=O)NCCOc2ccc3c(c2)C(C2(c4ccc(Cl)cc4)CCC2)NCC3)C1` (stereo not shown) [Example 170, Benzyl 3-{[2-({1-[1-(4-chlorophenyl)cyclobutyl]-1,2,3,4-tetrahydroisoquinolin-7-yl}oxy)ethyl]sulfamoyl}pyrrolidine-1-carboxylate] and `O=S(=O)(NCCOc1ccc2c(c1)C(C1(c3ccc(Cl)cc3)CCC1)NCC2)C1CCN(Cc2ccccc2)CC1` (stereo not shown) [Example 177, 1-Benzyl-N-[2-({1-[1-(4-chlorophenyl)cyclobutyl]-1,2,3,4-tetrahydroisoquinolin-7-yl}oxy)ethyl]piperidine-4-sulfonamide hydrochloride] cannot be ordered by Ki: no more than 1 µM for the first, no more than 10 µM for the second.

`CCCS(=O)(=O)NCCOc1ccc2c(c1)C(C1(c3ccc(Cl)cc3)CCC1)N(C(C)=O)CC2` (stereo not shown) [Example 171, N-[2-({2-Acetyl-1-[1-(4-chlorophenyl)cyclobutyl]-1,2,3,4-tetrahydroisoquinolin-7-yl}oxy)ethyl]propane-1-sulfonamide] and `CNCCCS(=O)(=O)NCCOc1ccc2c(c1)C(C1(c3ccc(Cl)cc3)CCC1)NCC2` (stereo not shown) [Example 178, N-[2-({1-[1-(4-Chlorophenyl)cyclobutyl]-1,2,3,4-tetrahydroisoquinolin-7-yl}oxy)ethyl]-3-(methylamino)propane-1-sulfonamide (2E)-but-2-enedioate] cannot be ordered by Ki: no more than 10 µM for the first, no more than 10 µM for the second.

`CCCS(=O)(=O)N(CCN)CCOc1ccc2c(c1)C(C1(c3ccc(Cl)cc3)CCC1)NCC2` (stereo not shown) [Example 174, N-(2-Aminoethyl)-N-[2-({1-[1-(4-chlorophenyl)cyclobutyl]-1,2,3,4-tetrahydroisoquinolin-7-yl}oxy)ethyl]propane-1-sulfonamide dihydrochloride] and `NCCCCS(=O)(=O)NCCOc1ccc2c(c1)C(C1(c3ccc(Cl)cc3)CCC1)NCC2` (stereo not shown) [Example 184, 4-Amino-N-[2-({1-[1-(4-chlorophenyl)cyclobutyl]-1,2,3,4-tetrahydroisoquinolin-7-yl}oxy)ethyl]butane-1-sulfonamide (2E)-but-2-enedioate] cannot be ordered by Ki: no more than 10 µM for the first, no more than 10 µM for the second.

`CC(=O)N1CC(S(=O)(=O)NCCOc2ccc3c(c2)C(C2(c4ccc(Cl)cc4)CCC2)NCC3)C1` (stereo not shown) [Example 180, 1-Acetyl-N-[2-({1-[1-(4-chlorophenyl)cyclobutyl]-1,2,3,4-tetrahydroisoquinolin-7-yl}oxy)ethyl]azetidine-3-sulfonamide di[(2E)-but-2-enedioate]] and `O=S(=O)(NCCOc1ccc2c(c1)C(C1(c3ccc(Cl)cc3)CCC1)NCC2)C1CCNCC1` (stereo not shown) [Example 190, N-[2-({1-[1-(4-Chlorophenyl)cyclobutyl]-1,2,3,4-tetrahydroisoquinolin-7-yl}oxy)ethyl]piperidine-4-sulfonamide dihydrochloride] cannot be ordered by Ki: no more than 10 µM for the first, no more than 10 µM for the second.

`CN1CCOc2cc(S(=O)(=O)NCCOc3ccc4c(c3)C(C3(c5ccc(Cl)cc5)CCC3)NCC4)cnc21` (stereo not shown) [Example 185, N-[2-({1-[1-(4-Chlorophenyl)cyclobutyl]-1,2,3,4-tetrahydroisoquinolin-7-yl}oxy)ethyl]-4-methyl-3,4-dihydro-2H-pyrido[3,2-b][1,4]oxazine-7-sulfonamide hydrochloride] and `O=S(=O)(NCCOc1ccc2c(c1)C(C1(c3ccc(Cl)cc3)CCC1)NCC2)c1ccc(N2CCOCC2)nc1` (stereo not shown) [Example 189, N-[2-({1-[1-(4-Chlorophenyl)cyclobutyl]-1,2,3,4-tetrahydroisoquinolin-7-yl}oxy)ethyl]-6-(morpholin-4-yl)pyridine-3-sulfonamide hydrochloride] cannot be ordered by Ki: no more than 10 µM for the first, no more than 10 µM for the second.

`Nc1n[nH]c(S(=O)(=O)NCCOc2ccc3c(c2)C(C2(c4ccc(Cl)cc4)CCC2)NCC3)n1` (stereo not shown) [Example 203, 3-Amino-N-[2-({1-[1-(4-chlorophenyl)cyclobutyl]-1,2,3,4-tetrahydroisoquinolin-7-yl}oxy)ethyl]-1H-1,2,4-triazole-5-sulfonamide dihydrochloride] gave a Ki of no more than 100 µM.

— patent US8653100B2 (AbbVie Inc., priority 2008, dated 2014)
